Measured values as given in patent publication US9073911B2, “Pyrazole derivatives” (HOFFMANN-LA ROCHE INC., priority 2011, dated 2015).
Where a name gives a salt, the structure may show the parent alone.

What was measured:
mouse TAAR1 = mouse TAAR1 (Mus musculus (Mouse), UniProt Q923Y8); experiment: Radioligand binding assay on mouse TAAR1; details: for Ki: membranes of HEK-293 cells stably expressing mouse TAAR1, first value of cell mouse/rat
Procedure: (§1) Construction of TAAR Expression Plasmids and Stably Transfected Cell Lines
(§2) For the construction of expression plasmids the coding sequences of human, rat and mouse TAAR 1 were amplified from genomic DNA essentially as described by Lindemann et al.. The Expand High Fidelity PCR System (Roche Diagnostics) was used with 1.5 mM Mg^2+ and purified PCR products were cloned into pCR2.1-TOPO cloning vector (Invitrogen) following the instructions of the manufacturer. PCR products were subcloned into the pIRESneo2 vector (BD Clontech, Palo Alto, Calif.), and expression vectors were sequence verified before introduction in cell lines.
(§3) HEK293 cells (ATCC # CRL-1573) were cultured essentially as described by Lindemann et al. (2005). For the generation of stably transfected cell lines HEK293 cells were transfected with the pIRESneo2 expression plasmids containing the TAAR coding sequences (described above) with Lipofectamine 2000 (Invitrogen) according to the instructions of the manufacturer, and 24 hrs post transfection the culture medium was supplemented with 1 mg/ml G418 (Sigma, Buchs, Switzerland). After a culture period of about 10 d clones were isolated, expanded and tested for responsiveness to trace amines (all compounds purchased from Sigma) with the cAMP Biotrak Enzyme immunoassay (EIA) System (Amersham) following the non-acetylation EIA procedure provided by the manufacturer.
Radioligand Binding Assay on Mouse TAAR1
(§4) Membrane Preparation and Radioligand Binding.
HEK-293 cells stably expressing mouse TAAR1 were maintained at 37° C. and 5% CO2 in DMEM high glucose medium, containing fetal calf serum (10%, heat inactivated for 30 min at 56° C.), penicillin/streptomycin (1%), and 375 μg/ml geneticin (Gibco). Cells were released from culture flasks using trypsin/EDTA, harvested, washed twice with ice-cold PBS (without Ca^2+ and Mg^2+), pelleted at 1,000 rpm for 5 min at 4° C., frozen and stored at −80° C. Frozen pellets were suspended in 20 ml HEPES-NaOH (20 mM, pH 7.4) containing 10 mM EDTA and homogenized with a Polytron (PT 6000, Kinematica) at 14,000 rpm for 20 s. The homogenate was centrifuged at 48,000×g for 30 min at 4° C. Subsequently, the supernatant was removed and discarded, and the pellet resuspended in 20 ml HEPES-NaOH (20 mM, pH 7.4) containing 0.1 mM EDTA using the Polytron (20 s at 14,000 rpm). This procedure was repeated and the final pellet resuspended in HEPES-NaOH containing 0.1 mM EDTA and homogenized using the Polytron. Typically, aliquots of 2 ml membrane portions were stored at −80° C. With each new membrane batch the dissociation constant (Kd) was determined via a saturation curve. The TAAR1 radioligand ^3[H]—(S)-4-[(ethyl-phenyl-amino)-methyl]-4,5-dihydro-oxazol-2-ylamine (described in WO 2008/098857) was used at a concentration equal to the calculated Kd value, that was usually around 0.7 nM, resulting in the binding of approximately 0.5% of the radioligand and a specific binding representing approximately 70% of the total binding. Nonspecific binding was defined as the amount of ^3[H]—(S)-4-[(ethyl-phenyl-amino)-methyl]-4,5-dihydro-oxazol-2-ylamine bound in the presence of 10 μM unlabeled ligand. All compounds were tested at a broad range of concentrations ([…]) in duplicates. […] The 96 deep well plates were incubated for 1 hr at 4° C. Incubations were terminated by rapid filtration through Unifilter-96 plates (Packard Instrument Company) and glass filters GF/C (Perkin Elmer) presoaked for 1 hr in polyethylenimine (0.3%) and washed 3 times with 1 ml of cold binding buffer. After addition of 45 μl of Microscint 40 (PerkinElmer) the Unifilter-96 plate was sealed and after 1 hr the radioactivity counted using a TopCount Microplate Scintillation Counter (Packard Instrument Company).

rat TAAR1 = rat TAAR1 (Rattus norvegicus (Rat), UniProt Q923Y9); experiment: Radioligand binding assay on rat TAAR1; details: for Ki: membranes of HEK-293 cells stably expressing rat TAAR1, second value of cell mouse/rat
Procedure: as §1, §2, §3
Radioligand Binding Assay on rat TAAR1
as §4
HEK-293 cells stably expressing rat TAAR1 were maintained at 37° C. and 5% CO2 in DMEM high glucose medium, containing fetal calf serum (10%, heat inactivated for 30 min at 56° C.), penicillin/streptomycin (1%), and 375 μg/ml geneticin (Gibco). Cells were released from culture flasks using trypsin/EDTA, harvested, washed twice with ice-cold PBS (without Ca^2+ and Mg^2+), pelleted at 1,000 rpm for 5 min at 4° C., frozen and stored at −80° C. Frozen pellets were suspended in 20 ml HEPES-NaOH (20 mM, pH 7.4) containing 10 mM EDTA and homogenized with a Polytron (PT 6000, Kinematica) at 14,000 rpm for 20 s. The homogenate was centrifuged at 48,000×g for 30 min at 4° C. Subsequently, the supernatant was removed and discarded, and the pellet resuspended in 20 ml HEPES-NaOH (20 mM, pH 7.4) containing 0.1 mM EDTA using the Polytron (20 s at 14,000 rpm). This procedure was repeated and the final pellet resuspended in HEPES-NaOH containing 0.1 mM EDTA and homogenized using the Polytron. Typically, aliquots of 2 ml membrane portions were stored at −80° C. With each new membrane batch the dissociation constant (Kd) was determined via a saturation curve.
Nonspecific binding was defined as the amount of ^3-[H]-(S)-4-[(ethyl-phenyl-amino)-methyl]-4,5-dihydro-oxazol-2-ylamine bound in the presence of 10 μM unlabeled ligand. All compounds were tested at a broad range of concentrations (10 pM to 10 μM) in duplicates. […] The 96 deep well plates were incubated for 1 hr at 4° C. Incubations were terminated by rapid filtration through Unifilter-96 plates (Packard Instrument Company) and glass filters GF/C (Perkin Elmer) presoaked for 1 hr in polyethylenimine (0.3%) and washed 3 times with 1 ml of cold binding buffer. After addition of 45 μl of Microscint 40 (PerkinElmer) the Unifilter-96 plate was sealed and after 1 hr the ratioactivity counted using a TopCount Microplate Scintillation Counter (Packard Instrument Company).

Sequence of rat TAAR1 (Q923Y9 whole entry): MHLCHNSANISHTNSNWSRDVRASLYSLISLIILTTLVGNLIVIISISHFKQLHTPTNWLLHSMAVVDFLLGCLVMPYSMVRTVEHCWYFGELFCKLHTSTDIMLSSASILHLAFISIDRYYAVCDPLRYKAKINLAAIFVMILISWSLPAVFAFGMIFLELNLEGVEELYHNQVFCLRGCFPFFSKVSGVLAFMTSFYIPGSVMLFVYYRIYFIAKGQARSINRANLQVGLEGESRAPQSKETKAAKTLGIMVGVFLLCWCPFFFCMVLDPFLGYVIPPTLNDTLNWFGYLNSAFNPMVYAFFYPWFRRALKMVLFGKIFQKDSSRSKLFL
Sequence of mouse TAAR1 (Q923Y8 whole entry): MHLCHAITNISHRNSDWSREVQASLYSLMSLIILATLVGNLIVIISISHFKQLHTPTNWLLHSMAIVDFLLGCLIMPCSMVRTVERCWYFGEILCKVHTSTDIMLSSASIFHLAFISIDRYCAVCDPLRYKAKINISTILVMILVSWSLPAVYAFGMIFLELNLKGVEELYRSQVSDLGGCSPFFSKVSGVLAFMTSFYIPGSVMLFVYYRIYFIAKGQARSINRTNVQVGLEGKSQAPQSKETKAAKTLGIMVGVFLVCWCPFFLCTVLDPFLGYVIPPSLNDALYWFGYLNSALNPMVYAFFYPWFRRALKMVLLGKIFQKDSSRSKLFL

Row | SMILES | Ki (mouse TAAR1) [µM] | Ki (rat TAAR1) [µM] | Kd (mouse TAAR1; mouse TAAR1 membranes, saturation curve, usual value, read-out: calculated Kd value of the TAAR1 radioligand) [nM] | Kd (rat TAAR1; rat TAAR1 membranes, saturation curve, usual value, read-out: calculated Kd value of the TAAR1 radioligand) [nM]
1 | Cn1nc(C(=O)Nc2ccc([C@H]3CNCCO3)cc2)cc1-c1ccccc1 [Example 18, (S)-1-methyl-N-(4-(morpholin-2-yl)phenyl)-5-phenyl-1H-pyrazole-3-carboxamide hydrochloride] | 0.0017 | 0.0254 |  | 
2 | O=C(Nc1ccc([C@H]2CNCCO2)cc1)c1cc(-c2ccccc2Cl)n[nH]1 [Example 10, (S)-3-(2-chlorophenyl)-N-(4-(morpholin-2-yl)phenyl)-1H-pyrazole-5-carboxamide hydrochloride] | 0.0005 | 0.0026 |  | 
3 | Cc1c(C(=O)Nc2ccc([C@H]3CNCCO3)cc2)n[nH]c1-c1cccc(C#N)c1 [Example 27, (S)-5-(3-cyanophenyl)-4-methyl-N-(4-(morpholin-2-yl)phenyl)-1H-pyrazole-3-carboxamide hydrochloride] | 0.0021 | 0.0135 |  | 
4 | Cn1nc(-c2ccc(F)cc2)cc1C(=O)Nc1ccc(C2CNCCO2)cc1 (stereo in doubt) [Example 22, (S)-3-(4-fluorophenyl)-1-methyl-N-(4-(morpholin-2-yl)phenyl)-1H-pyrazole-5-carboxamide hydrochloride] | 0.0023 | 0.0022 |  | 
5 | COc1cccc(-c2cc(C(=O)Nc3ccc([C@@H]4CNCCO4)cc3)[nH]n2)c1 [Example 16, (R)-3-(3-methoxyphenyl)-N-(4-(morpholin-2-yl)phenyl)-1H-pyrazole-5-carboxamide hydrochloride] | 0.0013 | 0.0014 |  | 
6 | CCN(C[C@H]1COC(N)=N1)c1ccccc1 [^3[H]—(S)-4-[(ethyl-phenyl-amino)-methyl]-4,5-dihydro-oxazol-2-ylamine, reference compound] |  |  | ~0.7 | ~2.3
7 | N#Cc1cccc(-c2cc(C(=O)Nc3ccc([C@H]4CNCCO4)cc3)[nH]n2)c1F [Example 43, (S)-3-(3-Cyano-2-fluorophenyl)-N-(4-(morpholin-2-yl)phenyl)-1H-pyrazole-5-carboxamide hydrochloride] | 0.0016 | 0.011 |  | 
8 | COc1ccccc1-c1cc(C(=O)Nc2ccc([C@H]3CNCCO3)cc2)[nH]n1 [Example 9, (S)-3-(2-methoxyphenyl)-N-(4-(morpholin-2-yl)phenyl)-1H-pyrazole-5-carboxamide hydrochloride] | 0.0014 | 0.014 |  | 
9 | COc1cccc(-c2cc(C(=O)Nc3ccc([C@H]4CNCCO4)cc3)n[nH]2)c1 [Example 4, (S)-3-(3-methoxyphenyl)-N-(4-(morpholin-2-yl)phenyl)-1H-pyrazole-5-carboxamide hydrochloride] | 0.001 | 0.0022 |  | 
10 | O=C(Nc1ccc([C@H]2CNCCO2)cc1)c1ccn(-c2cnc(Cl)cn2)n1 [Example 50, (S)-1-(5-Chloropyrazin-2-yl)-N-(4-(morpholin-2-yl)phenyl)-1H-pyrazole-3-carboxamide hydrochloride] | 0.0027 | 0.0091 |  | 
11 | N#Cc1cccc(-c2cc(C(=O)Nc3ccc([C@@H]4CCCNC4)cc3)[nH]n2)c1 [Example 36, (S)-3-(3-Cyanophenyl)-N-(4-(piperidin-3-yl)phenyl)-1H-pyrazole-5-carboxamide hydrochloride] | 0.0014 | 0.0138 |  | 
12 | O=C(Nc1ccc([C@H]2CNCCO2)cc1)c1ccnn1-c1ccccc1 [Example 30, (S)—N-(4-(Morpholin-2-yl)phenyl)-1-phenyl-1H-pyrazole-5-carboxamide hydrochloride] | 0.143 | 1.32 |  | 
13 | N#Cc1cc(-c2cc(C(=O)Nc3ccc([C@H]4CNCCO4)cc3)[nH]n2)ccc1F [Example 39, (S)-5-(3-Cyano-4-fluorophenyl)-N-(4-(morpholin-2-yl)phenyl)-1H-pyrazole-3-carboxamide hydrochloride] | 0.0014 | 0.003 |  | 
